Assay results reported in US10363239B2, “Method for inhibiting growth of cancer cells” (Pain Therapeutics, Inc., priority 2013, dated 2019).
Where two headings read alike, the source gives them in different places.

Experiments:
mu opiate receptor (MOR) = assay: MOR agonist activity using [35S]GTPγS binding assay in striatal membranes; assay type: biochemical; conditions: for MOR agonist activity ([35S]GTPγS binding), FLNA-Binding Compound as Agonist 1 μM + BFNA: 1 μM compound + 1 μM β-funaltrexamine
Outline: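 Striatal membranes (200 μg) were preincubated 5 min at 30 °C in HEPES pH 7.5 with 100 mM NaCl, 1 mM MgCl2 and 0.5 nM [35S]GTPγS, then 5 min more with 0.1–10 μM compound. Gαo was immunoprecipitated and bound radioactivity counted by scintillation.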

melanoma cells (A2058) = assay: [3H]glucose uptake; assay type: cell-based, human; conditions: C0105 0.1-5 nM, other compounds 1 and 5 nM, twice daily for 4 days
Protocol: (§1) FIG. 1A through FIG. 1M illustrate the effects of various FLNA-binding compounds on glucose uptake in glioblastoma, melanoma, breast and pancreatic cancer cell lines, along with appropriate non-cancerous primary cell controls. Cells were grown in the absence or presence of 0.1-5 nM indicated compounds for 4 days. Following brief washes with PBS, cells were serum-deprived for 4 hours and then incubated in oxygenated Kreb's Ringer containing 0.1 μCi [^3H]glucose for 2 hours under constant oxygenation. The reaction was terminated by removal of the incubation medium, and cells were washed and scraped off to determine the amounts of [^3H]glucose in cells by scintillation spectrometry. […] N=5-6. […] . […] . To determine the effect of Compound C0105 on glucose utilization, the cancer and primary normal cells were plated extremely thinly (10%). Once cells attached, Compound C0105 was added at 0.1, 0.5, 1 or 5 nM in the medium twice daily (6 hours apart) for 4 days. The cells were serum-deprived (glucose deprived) for 2 hours. Cells were then rinsed with 1 ml PBS and glucose uptake was assessed by contacting the cells with [^3H]glucose (0.01 uCi/l ml) in Kreb's Ringer for 2 hours. Cells were then rinsed with 1 ml PBS 3 times, scraped off and their glucose content counted by liquid scintillation spectrophotometry.
(§2) Both glioblastoma and melanoma cells were plated extremely thinly. Once cells attached, Compound C0105 was added at 0.1, 0.5, 1 and 5 nM, whereas the other compounds were present at 1 and 5 nM in the medium twice daily (6 hours apart) for 4 days. The cells were serum-deprived (glucose deprived) for 2 hours. Cells were then rinsed with 1 ml PBS and glucose uptake was assessed by contacting the cells with [3H]glucose (0.01 uCi/l ml) of Kreb's Ringer for 2 hours. Cells were then rinsed with 1 ml PBS 3 times, scraped off and their glucose contents counted by liquid scintillation spectrophotometry.

[1] = system: glioblastoma cells (U-87 MG); assay: [3H]glucose uptake; assay type: cell-based, human; conditions: C0105 0.1-5 nM, other compounds 1 and 5 nM, twice daily for 4 days
Protocol: as §1, §2

primary lung fibroblasts = assay: [3H]glucose uptake; assay type: cell-based, human; conditions: C0105 0.1-5 nM, other compounds 1 or 5 nM; 4 days
Protocol: as §1, §2

[2] = system: non-small cell lung cancer cell lines; assay: Glucose utilization; assay type: cell-based, human; conditions: data not shown
Protocol: To determine the effect of Compound C0105 on glucose utilization, the cancer and primary normal cells were plated extremely thinly (10%). Once cells attached, Compound C0105 was added at 0.1, 0.5, 1 or 5 nM in the medium twice daily (6 hours apart) for 4 days. The cells were serum-deprived (glucose deprived) for 2 hours. Cells were then rinsed with 1 ml PBS and glucose uptake was assessed by contacting the cells with [^3H]glucose (0.01 uCi/l ml) in Kreb's Ringer for 2 hours. Cells were then rinsed with 1 ml PBS 3 times, scraped off and their glucose content counted by liquid scintillation spectrophotometry.
. Primary lung fibroblast cells were used as control, non-cancerous cells to illustrate the difference in effects observed (FIG. 1C, FIGS. 1H-1I).

[3] = biological target: FLNA pentapeptide of SEQ ID NO: 1 (Bn-VAKGL) (Homo sapiens, UniProt P21333); assay: FITC-NLX-based FLNA screening assay (inhibition of FITC-naloxone binding to Bn-VAKGL on streptavidin plates); conditions: 10 nM FITC-NLX
adrenergic α1 receptors = assay: Standard receptor binding assay; conditions: 10 μM concentration
sigma σ1 receptor = sigma σ1 receptor (Homo sapiens, UniProt Q99720); assay: Standard receptor binding assay; conditions: 10 μM concentration
more than 65 receptors = assay: Standard binding assay on more than 65 receptors; conditions: 10 μM concentration
[4] = system: BxPC3 pancreatic cancer cell implants; assay: Xenograft tumor size study; conditions: gemcitabine at 50 mg/kg i.p. b.i.d.
[5] = 0.1 μM compound relative to DAMGO
[6] = 1 μM compound + BFNA relative to DAMGO + BFNA
[7] = 1 μM compound relative to DAMGO
[8] = read-out: Percent Binding Inhibition, FLNA-binding compound 0.01 μM
[9] = read-out: Percent Binding Inhibition, FLNA-binding compound 0.1 μM
[10] = read-out: Percent Binding Inhibition, FLNA-binding compound 1 μM
[11] = Series C-2, 0.1 μM compound, relative to DAMGO
[12] = Series C-2, 0.1 μM compound, [35S]GTPγS binding to Gαo, striatal membranes
[13] = Series C-2, 1 μM compound + 1 μM β-FNA
[14] = Series C-2, 1 μM compound + β-FNA, relative to DAMGO + BFNA
[15] = Series C-2, 1 μM compound, relative to DAMGO
[16] = Series C-2, 1 μM compound, [35S]GTPγS binding to Gαo, striatal membranes
[17] = FLNA-binding compound 0.01 μM, read-out: Percent Binding Inhibition
[18] = FLNA-binding compound 0.1 μM, read-out: Percent Binding Inhibition
[19] = FLNA-binding compound 1 μM, read-out: Percent Binding Inhibition

Sequence of sigma σ1 receptor (Q99720 whole entry): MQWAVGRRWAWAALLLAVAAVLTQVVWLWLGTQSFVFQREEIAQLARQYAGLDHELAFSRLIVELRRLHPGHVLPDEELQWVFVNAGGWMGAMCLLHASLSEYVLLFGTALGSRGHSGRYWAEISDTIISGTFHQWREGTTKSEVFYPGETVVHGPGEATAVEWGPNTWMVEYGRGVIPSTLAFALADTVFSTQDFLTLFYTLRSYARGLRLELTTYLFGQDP

| Compound | MOR agonist activity ([35S]GTPγS binding), FLNA-Binding Compound as Agonist 0.1 μM (mu opiate receptor (MOR); 0.1 μM compound) [%] | % DAMGO (0.1 μM) (mu opiate receptor (MOR); [5]) [%] | MOR agonist activity ([35S]GTPγS binding), FLNA-Binding Compound as Agonist 1 μM (mu opiate receptor (MOR); 1 μM compound) [%] | MOR agonist activity ([35S]GTPγS binding), FLNA-Binding Compound as Agonist 1 μM + BFNA (mu opiate receptor (MOR)) [%] | % DAMGO + BFNA (mu opiate receptor (MOR); [6]) [%] | % DAMGO (1 μM) (mu opiate receptor (MOR); [7]) [%] | Glucose utilization (melanoma cells (A2058)) | Glucose utilization [1] | Glucose uptake / glucose content (primary lung fibroblasts) | Glucose utilization [2] | % DAMGO (0.1 μM) (mu opiate receptor (MOR); [11]) [%] | MOR agonist activity, percent [35S]GTPγS binding at the stated compound concentration (mu opiate receptor (MOR); [12]) [%] | MOR agonist activity, percent [35S]GTPγS binding at the stated compound concentration (mu opiate receptor (MOR); [13]) [%] | % DAMGO + BFNA (mu opiate receptor (MOR); [14]) [%] | % DAMGO (1 μM) (mu opiate receptor (MOR); [15]) [%] | MOR agonist activity, percent [35S]GTPγS binding at the stated compound concentration (mu opiate receptor (MOR); [16]) [%] | inhibition at 0.01 µM [3, 17] [%] | inhibition at 0.1 µM [3, 18] [%] | inhibition at 1 µM [3, 19] [%] | other results |
| --- | --- | --- | --- | --- | --- | --- | --- | --- | --- | --- | --- | --- | --- | --- | --- | --- | --- | --- | --- | --- |
| COc1ccc(OCC(O)CN2CCc3ccccc3C2)cc1 (stereo not drawn) [Compound A0053] | 78.5 | 46.5 | 118.2 | 15.1 | 46.2 | 47.5 | decreased the elevated glucose utilization | decreased the elevated glucose utilization | no significant inhibition in glucose content | decreased the elevated glucose utilization | – | – | – | – | – | – | – | – | – | inhibition at 0.01 µM [3, 8]: 34.8%; inhibition at 0.1 µM [3, 9]: 40%; inhibition at 1 µM [3, 10]: 46.9% |
| COc1ccc(S(=O)(=O)N2CCOC23CCNCC3)cc1 [Compound C0027] | – | – | – | – | – | – | – | – | – | – | 121.3 | 233.2 | 72.2 | 164.5 | 115.0 | 313.9 | 50.8 | 61.2 | 63.8 | Activity at adrenergic α1 receptors (adrenergic α1 receptors): antagonist; Activity at sigma σ1 receptor (sigma σ1 receptor): antagonist |
| CC1CN(CC(O)COc2cccc(F)c2)CC(C)O1 (stereo not drawn) [Compound A0049] | 232.3 | 118.4 | 370.3 | 107.1 | 144.9 | 134.2 | – | – | – | – | – | – | – | – | – | – | 46.2 | 49.4 | 49.3 | Activity at sigma σ1 receptor (sigma σ1 receptor): antagonist |
| O=C1CN(Cc2ccccc2)C2(CCN(S(=O)(=O)c3cc(Cl)c(O)c(Cl)c3)CC2)N1 [Compound C0139M] | – | – | – | – | – | – | decreased the elevated glucose utilization | decreased the elevated glucose utilization | no significant inhibition in glucose content | decreased the elevated glucose utilization | – | – | – | – | – | – | – | – | – | % DAMGO (0.1 μM) (mu opiate receptor (MOR); Series C-1, 0.1 μM compound, relative to DAMGO): 106.2%; % DAMGO + BFNA (mu opiate receptor (MOR); Series C-1, 1 μM compound + β-FNA, relative to DAMGO + BFNA): 129.8%; % DAMGO (1 μM) (mu opiate receptor (MOR); Series C-1, 1 μM compound, relative to DAMGO): 102.2%; Binding to any of more than 65 assayed receptors (more than 65 receptors): no significant binding |
| COc1c2c(cc3c1C(CC(=O)Cc1ccccc1F)[N+](C)(C)CC3)OCO2 (stereo not drawn) [Compound B0055] | – | – | – | – | – | – | decreased the elevated glucose utilization | decreased the elevated glucose utilization | no significant inhibition in glucose content | decreased the elevated glucose utilization | – | – | – | – | – | – | – | – | – | % DAMGO (0.1 μM) (mu opiate receptor (MOR); Series B, 0.1 μM compound, relative to DAMGO): 91.8%; MOR agonist activity, percent [35S]GTPγS binding at the stated compound concentration (mu opiate receptor (MOR); Series B, 0.1 μM compound, [35S]GTPγS binding to Gαo, striatal membranes): 162.1%; MOR agonist activity, percent [35S]GTPγS binding at the stated compound concentration (mu opiate receptor (MOR); Series B, 1 μM compound + 1 μM β-FNA): 117.5%; % DAMGO + BFNA (mu opiate receptor (MOR); Series B, 1 μM compound + β-FNA, relative to DAMGO + BFNA): 446.8%; % DAMGO (1 μM) (mu opiate receptor (MOR); Series B, 1 μM compound, relative to DAMGO): 133.1%; MOR agonist activity, percent [35S]GTPγS binding at the stated compound concentration (mu opiate receptor (MOR); Series B, 1 μM compound, [35S]GTPγS binding to Gαo, striatal membranes): 338.5% |
| O=C1CNC2(CCN(CC3CC3)CC2)N1Cc1ccccc1 [Compound C0124M] | – | – | – | – | – | – | decreased the elevated glucose utilization | decreased the elevated glucose utilization | no significant inhibition in glucose content | decreased the elevated glucose utilization | – | – | – | – | – | – | 47.7 | 52.2 | 58.7 | – |
| CC(=O)c1ccc(S(=O)(=O)N2CC(CN(C)C)OC23CCN(C)CC3)cc1 (stereo not drawn) [Compound C0108M] | – | – | – | – | – | – | decreased the elevated glucose utilization | decreased the elevated glucose utilization | no significant inhibition in glucose content | decreased the elevated glucose utilization | 108.7 | 205.6 | 76.9 | 158.6 | 104.1 | 258.5 | – | – | – | inhibition at 0.01 µM [3, 8]: 54.6%; inhibition at 0.1 µM [3, 9]: 61.4%; inhibition at 1 µM [3, 10]: 68.7% |
| CC1CCC(C(C)C)C(OCC(CN2CC(C)OC(C)C2)NCc2ccccc2)C1 (stereo not drawn) [Compound A0033] | 155.8 | 79.4 | 254.6 | 118.2 | 159.9 | 92.2 | decreased the elevated glucose utilization | decreased the elevated glucose utilization | no significant inhibition in glucose content | decreased the elevated glucose utilization | – | – | – | – | – | – | 46.4 | 51.8 | 56.5 | – |
| Nc1ccn([C@@H]2O[C@H](CO)[C@@H](O)C2(F)F)c(=O)n1 [gemcitabine] | – | – | – | – | – | – | – | – | – | – | – | – | – | – | – | – | – | – | – | Tumor growth [4]: slowed growth but did not shrink BxPC3 xenograft tumors |
| Cc1ccc(S(=O)(=O)N2CCOC23CCN(CC2CC2)CC3)cc1 [Compound C0134M] | – | – | – | – | – | – | decreased the elevated glucose utilization | decreased the elevated glucose utilization | no significant inhibition in glucose content | decreased the elevated glucose utilization | 94.6 | 158.5 | 46.6 | 98.1 | 93.3 | 207.3 | 55.7 | 60.5 | 61.9 | MOR agonist activity, FLNA-Binding Compound as Agonist 0.1 μM (preliminary study) (mu opiate receptor (MOR); 0.1 μM, average of two runs): 150.7%; MOR agonist activity, FLNA-Binding Compound as Agonist 1 μM + βNFA (preliminary study) (mu opiate receptor (MOR); 1 μM + βNFA, average of two runs): 53.2%; MOR agonist activity, FLNA-Binding Compound as Agonist 1 μM (preliminary study) (mu opiate receptor (MOR); 1 μM, average of two runs): 224.0% |
